From patent US9340590B2 (priority 2011, dated 2016) come the findings set out here.

Read-outs that look alike come from different tables or passages of the source. Positions of bridges follow the written chain, without caps; N, C: chain ends. Non-standard residues stand in square brackets, D forms with d. Residues, ends and D or L forms follow the SMILES beside them. 1Nal = N[C@@H](Cc1cccc2ccccc12)C(=O)O; Cha = N[C@@H](CC1CCCCC1)C(=O)O; pGlu = O=C1CC[C@@H](C(=O)O)N1 Some results are limits rather than exact numbers.

What all share (test): cell-based
The target of one test is hNav1.5 (Homo sapiens, UniProt Q14524). Particulars: IonWorks Quattro, read-out: IWQ Use Nav1.5. For orientation: The patch-clamp technique gives a direct electrical read-out from membranes.
Chain of hNav1.5 (Q14524 whole entry, looked up): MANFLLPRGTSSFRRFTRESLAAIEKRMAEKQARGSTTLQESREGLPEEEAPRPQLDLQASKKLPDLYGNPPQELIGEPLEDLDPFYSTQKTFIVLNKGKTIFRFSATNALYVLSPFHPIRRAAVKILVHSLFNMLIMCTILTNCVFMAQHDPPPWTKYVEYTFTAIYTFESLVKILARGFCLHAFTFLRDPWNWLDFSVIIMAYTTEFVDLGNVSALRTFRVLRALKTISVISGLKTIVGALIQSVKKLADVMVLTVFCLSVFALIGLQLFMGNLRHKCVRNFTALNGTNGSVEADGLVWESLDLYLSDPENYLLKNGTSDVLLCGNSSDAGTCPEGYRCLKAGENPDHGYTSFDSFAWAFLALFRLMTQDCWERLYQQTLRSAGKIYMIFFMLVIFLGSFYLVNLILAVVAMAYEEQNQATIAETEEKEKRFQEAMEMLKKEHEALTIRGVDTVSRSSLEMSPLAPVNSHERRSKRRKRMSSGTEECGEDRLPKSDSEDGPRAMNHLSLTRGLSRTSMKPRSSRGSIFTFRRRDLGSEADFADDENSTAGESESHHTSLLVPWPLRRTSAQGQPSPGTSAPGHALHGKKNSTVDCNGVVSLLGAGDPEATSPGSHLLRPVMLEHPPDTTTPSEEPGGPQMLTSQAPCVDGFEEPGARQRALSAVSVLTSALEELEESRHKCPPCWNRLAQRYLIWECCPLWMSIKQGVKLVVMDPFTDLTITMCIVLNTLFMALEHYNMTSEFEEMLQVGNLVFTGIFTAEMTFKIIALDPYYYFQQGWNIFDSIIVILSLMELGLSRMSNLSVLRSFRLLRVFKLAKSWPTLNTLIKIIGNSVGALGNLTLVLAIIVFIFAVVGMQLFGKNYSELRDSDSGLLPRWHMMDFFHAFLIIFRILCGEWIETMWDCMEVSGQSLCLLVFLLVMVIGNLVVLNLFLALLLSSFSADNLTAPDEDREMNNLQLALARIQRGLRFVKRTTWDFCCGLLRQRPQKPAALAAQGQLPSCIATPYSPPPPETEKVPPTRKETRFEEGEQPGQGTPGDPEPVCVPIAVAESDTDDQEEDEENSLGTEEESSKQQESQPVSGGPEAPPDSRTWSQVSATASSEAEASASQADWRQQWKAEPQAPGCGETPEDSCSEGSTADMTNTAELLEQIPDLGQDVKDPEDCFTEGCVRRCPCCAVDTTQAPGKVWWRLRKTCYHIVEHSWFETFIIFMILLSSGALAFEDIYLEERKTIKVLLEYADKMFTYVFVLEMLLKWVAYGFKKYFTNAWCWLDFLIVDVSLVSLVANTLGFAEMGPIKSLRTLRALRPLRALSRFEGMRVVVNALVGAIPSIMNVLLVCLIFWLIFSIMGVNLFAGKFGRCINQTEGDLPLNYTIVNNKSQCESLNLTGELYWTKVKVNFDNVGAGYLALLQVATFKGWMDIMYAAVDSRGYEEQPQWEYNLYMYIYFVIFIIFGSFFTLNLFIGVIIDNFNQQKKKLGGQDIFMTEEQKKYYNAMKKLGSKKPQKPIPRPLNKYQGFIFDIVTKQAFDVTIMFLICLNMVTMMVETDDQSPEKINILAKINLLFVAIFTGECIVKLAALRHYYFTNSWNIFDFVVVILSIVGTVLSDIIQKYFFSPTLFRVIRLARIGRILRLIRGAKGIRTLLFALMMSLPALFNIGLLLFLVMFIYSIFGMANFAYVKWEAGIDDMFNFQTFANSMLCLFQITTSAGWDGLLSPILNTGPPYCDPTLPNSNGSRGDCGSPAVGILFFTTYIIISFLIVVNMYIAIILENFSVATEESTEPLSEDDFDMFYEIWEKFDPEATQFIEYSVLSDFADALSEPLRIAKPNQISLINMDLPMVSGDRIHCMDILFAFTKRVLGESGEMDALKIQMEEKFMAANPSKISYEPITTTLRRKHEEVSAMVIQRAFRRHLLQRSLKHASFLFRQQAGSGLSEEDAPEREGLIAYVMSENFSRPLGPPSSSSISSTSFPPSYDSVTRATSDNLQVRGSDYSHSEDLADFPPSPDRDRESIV
A further test deals with hNav1.7 (Homo sapiens, UniProt Q15858). The format is cell-based. The settings on record: IonWorks Quattro, read-out: IWQ Use Nav1.7.
In another test the target is hNav1.3 (Homo sapiens, UniProt Q9NY46). Particulars: IonWorks Quattro, read-out: IWQ Use Nav1.3.
Chain of hNav1.3 (Q9NY46 whole entry, looked up): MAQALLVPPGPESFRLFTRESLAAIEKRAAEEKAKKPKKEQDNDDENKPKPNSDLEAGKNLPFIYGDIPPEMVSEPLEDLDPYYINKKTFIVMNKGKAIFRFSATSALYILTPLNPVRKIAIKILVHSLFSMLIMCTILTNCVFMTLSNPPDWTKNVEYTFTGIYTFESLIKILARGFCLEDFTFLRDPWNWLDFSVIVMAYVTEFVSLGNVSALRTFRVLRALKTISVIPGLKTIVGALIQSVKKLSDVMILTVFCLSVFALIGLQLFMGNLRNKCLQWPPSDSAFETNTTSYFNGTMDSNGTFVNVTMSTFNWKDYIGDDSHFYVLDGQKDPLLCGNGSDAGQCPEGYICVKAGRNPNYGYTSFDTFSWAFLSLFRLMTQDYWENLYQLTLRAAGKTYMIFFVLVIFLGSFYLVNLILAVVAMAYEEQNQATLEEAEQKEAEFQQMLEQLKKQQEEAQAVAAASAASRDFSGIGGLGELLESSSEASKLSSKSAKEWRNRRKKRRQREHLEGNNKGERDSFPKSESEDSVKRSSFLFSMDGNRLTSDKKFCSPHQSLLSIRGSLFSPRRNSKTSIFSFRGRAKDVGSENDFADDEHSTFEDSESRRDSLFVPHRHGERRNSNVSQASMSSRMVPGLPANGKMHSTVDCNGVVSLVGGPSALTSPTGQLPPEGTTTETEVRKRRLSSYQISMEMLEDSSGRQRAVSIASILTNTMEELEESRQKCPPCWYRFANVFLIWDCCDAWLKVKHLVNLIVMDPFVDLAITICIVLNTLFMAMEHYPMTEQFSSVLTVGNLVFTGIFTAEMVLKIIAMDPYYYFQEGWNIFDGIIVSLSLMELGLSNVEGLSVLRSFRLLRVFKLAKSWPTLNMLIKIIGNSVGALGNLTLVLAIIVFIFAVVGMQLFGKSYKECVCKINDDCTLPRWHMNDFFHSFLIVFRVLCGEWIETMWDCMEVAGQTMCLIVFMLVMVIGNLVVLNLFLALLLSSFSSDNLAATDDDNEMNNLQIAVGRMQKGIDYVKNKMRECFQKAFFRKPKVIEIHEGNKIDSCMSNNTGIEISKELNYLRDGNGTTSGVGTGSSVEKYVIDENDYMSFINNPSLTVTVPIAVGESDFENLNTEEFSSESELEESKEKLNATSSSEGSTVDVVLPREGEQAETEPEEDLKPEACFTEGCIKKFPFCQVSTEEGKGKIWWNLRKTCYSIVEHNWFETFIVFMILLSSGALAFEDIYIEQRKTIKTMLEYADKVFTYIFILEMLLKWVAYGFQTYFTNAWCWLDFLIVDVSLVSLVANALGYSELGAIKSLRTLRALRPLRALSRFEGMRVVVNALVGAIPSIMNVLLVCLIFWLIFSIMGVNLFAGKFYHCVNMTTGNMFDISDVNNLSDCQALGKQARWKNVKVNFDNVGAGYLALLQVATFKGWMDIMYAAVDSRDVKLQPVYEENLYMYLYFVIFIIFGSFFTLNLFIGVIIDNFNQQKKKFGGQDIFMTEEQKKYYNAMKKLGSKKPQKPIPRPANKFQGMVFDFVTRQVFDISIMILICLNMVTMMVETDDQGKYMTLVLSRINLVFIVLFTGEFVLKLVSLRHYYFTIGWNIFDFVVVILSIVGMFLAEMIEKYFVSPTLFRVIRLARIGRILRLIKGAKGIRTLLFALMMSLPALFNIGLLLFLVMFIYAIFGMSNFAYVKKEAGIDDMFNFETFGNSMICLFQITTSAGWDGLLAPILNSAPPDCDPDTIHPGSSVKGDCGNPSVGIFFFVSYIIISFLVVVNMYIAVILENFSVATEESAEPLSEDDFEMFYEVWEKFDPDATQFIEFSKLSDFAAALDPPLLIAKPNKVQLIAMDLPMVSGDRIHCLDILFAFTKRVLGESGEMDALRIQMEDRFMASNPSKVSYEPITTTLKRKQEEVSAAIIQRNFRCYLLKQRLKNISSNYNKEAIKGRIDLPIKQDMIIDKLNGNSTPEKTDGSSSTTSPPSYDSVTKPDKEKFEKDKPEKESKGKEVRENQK
The mark [1] stands for this setting: clamped to −110 mV, depolarized to −10 mV, 5 min after compound, n=2.

As for `CC[C@@H]1NC(=O)CNC(=O)[C@H](CC(C)C)NC(=O)[C@@H](NC(=O)[C@@H](N)CC(=O)O)CSSC[C@@H]2NC(=O)[C@@H]3CSSC[C@@H](C(=O)N[C@@H](CCCCN)C(=O)N[C@@H](Cc4ccc(O)cc4)C(=O)N[C@H](C(=O)N[C@@H](Cc4ccccc4)C(N)=O)C(C)C)NC(=O)[C@H](Cc4c[nH]c5ccccc45)NC(=O)[C@H](CCCCN)NC(=O)[C@H](Cc4c[nH]cn4)NC(=O)[C@H]([C@@H](C)O)NC(=O)[C@H](CCCNC(=N)N)NC(=O)[C@H](CO)NC(=O)[C@H](CSSC[C@H](NC(=O)[C@H](CCCCN)NC(=O)[C@H](CCCNC(=N)N)NC(=O)[C@H](CC(C)C)NC1=O)C(=O)N[C@@H]([C@@H](C)CC)C(=O)N1CCC[C@H]1C(=O)N[C@@H](CC(=O)O)C(=O)N[C@@H](CC(N)=O)C(=O)N[C@@H](CC(=O)O)C(=O)N[C@@H](CCCCN)C(=O)N3)NC(=O)[C@H](C(C)C)NC(=O)[C@H](CC(C)C)NC(=O)[C@H](CC(N)=O)NC(=O)[C@@H]1CCCN1C(=O)[C@H](CCCNC(=N)N)NC2=O` [compound 636], the IC50 on hNav1.5 (use-dependent protocol, hNav1.5) came to 16700 nM; at hNav1.7 (use-dependent protocol, hNav1.7), 290 nM; at hNav1.3 (use-dependent protocol, hNav1.3) it was 1000 nM.

Regarding `CC[C@H](C)[C@@H]1NC(=O)[C@@H]2CSSC[C@@H]3NC(=O)[C@H](C(C)C)NC(=O)[C@H](CC(C)C)NC(=O)[C@H](CC(N)=O)NC(=O)[C@@H]4CCCN4C(=O)[C@H](CCCNC(=N)N)NC(=O)[C@H](CSSC[C@H](NC(=O)[C@@H](N)CC(=O)O)C(=O)N[C@@H](CC(C)C)C(=O)NCC(=O)N[C@@H](Cc4ccccc4)C(=O)N[C@@H](Cc4c[nH]c5ccccc45)C(=O)N[C@@H](CCCNC(=N)N)C(=O)N[C@@H](CCCCN)C(=O)N2)NC(=O)[C@H](CSSC[C@@H](C(=O)N[C@@H](CCCCN)C(=O)N[C@@H](Cc2ccc(O)cc2)C(=O)N[C@@H](Cc2cccc4ccccc24)C(=O)N[C@@H](Cc2ccccc2)C(N)=O)NC(=O)[C@H](Cc2c[nH]c4ccccc24)NC(=O)[C@H](CCCCN)NC(=O)[C@H](Cc2c[nH]cn2)NC(=O)[C@H]([C@@H](C)O)NC(=O)[C@H](CCCNC(=N)N)NC(=O)[C@H](CO)NC3=O)NC(=O)[C@H](CCCCN)NC(=O)[C@H](CC(=O)O)NC(=O)[C@H](CC(N)=O)NC(=O)[C@H](CC(=O)O)NC(=O)[C@@H]2CCCN2C1=O` [compound 461] (H-DCLGFWRKCIPDNDKCCRPNLVCSRTHKWCKY[1Nal]F-NH2; disulfide 2-17, 9-23, 16-30), the IC50 on hNav1.5 (use-dependent block, hNav1.5) was over 5000 nM; at hNav1.7 (use-dependent block, hNav1.7), 100 nM; at hNav1.3 (use-dependent block, hNav1.3), 50 nM.

On to `CC[C@H](C)[C@@H]1NC(=O)[C@@H]2CSSC[C@@H]3NC(=O)[C@H](C(C)C)NC(=O)[C@H](CC(C)C)NC(=O)[C@H](CC(N)=O)NC(=O)[C@@H]4CCCN4C(=O)[C@H](CCCNC(=N)N)NC(=O)[C@H](CSSC[C@H](NC(=O)[C@@H](N)CC(=O)O)C(=O)N[C@@H](CC(C)C)C(=O)NCC(=O)N[C@@H](Cc4ccccc4)C(=O)N[C@@H](C)C(=O)N[C@@H](CCCNC(=N)N)C(=O)N[C@@H](CCCCN)C(=O)N2)NC(=O)[C@H](CSSC[C@@H](C(=O)N[C@@H](CCCCN)C(=O)N[C@@H](Cc2ccc(O)cc2)C(=O)N[C@H](C(=O)N[C@@H](Cc2ccccc2)C(N)=O)C(C)C)NC(=O)[C@H](Cc2c[nH]c4ccccc24)NC(=O)[C@H](CCCCN)NC(=O)[C@H](Cc2cnc[nH]2)NC(=O)[C@H]([C@@H](C)O)NC(=O)[C@H](CCCNC(=N)N)NC(=O)[C@H](CO)NC3=O)NC(=O)[C@H](CCCCN)NC(=O)[C@H](CC(=O)O)NC(=O)[C@H](CC(N)=O)NC(=O)[C@H](CC(=O)O)NC(=O)[C@@H]2CCCN2C1=O` [SEQ ID NO: 23] (H-DCLGFARKCIPDNDKCCRPNLVCSRTHKWCKYVF-NH2; disulfide 2-17, 9-23, 16-30), for which the values for the IC50 on hNav1.5 (setting [1]), on hNav1.7 (setting [1]) and on hNav1.3 (setting [1]) were 17400 nM, 510 nM and 210 nM, respectively.

`CC[C@H](C)[C@@H]1NC(=O)[C@@H]2CSSC[C@@H]3NC(=O)[C@H](C(C)C)NC(=O)[C@H](CC(C)C)NC(=O)[C@H](CC(N)=O)NC(=O)[C@@H]4CCCN4C(=O)[C@H](CCCNC(=N)N)NC(=O)[C@H](CSSC[C@H](NC(=O)[C@@H](N)CC(=O)O)C(=O)N[C@@H](CC(C)C)C(=O)NCC(=O)N[C@@H](Cc4ccccc4)C(=O)N[C@@H](CCSC)C(=O)N[C@@H](CCCNC(=N)N)C(=O)N[C@@H](CCCCN)C(=O)N2)NC(=O)[C@H](CSSC[C@@H](C(=O)N[C@@H](CCCCN)C(=O)N[C@@H](Cc2ccc(O)cc2)C(=O)N[C@H](C(=O)N[C@@H](CC2CCCCC2)C(N)=O)C(C)C)NC(=O)[C@H](Cc2c[nH]c4ccccc24)NC(=O)[C@H](CCCCN)NC(=O)[C@H](Cc2c[nH]cn2)NC(=O)[C@H]([C@@H](C)O)NC(=O)[C@H](CCCNC(=N)N)NC(=O)[C@H](CO)NC3=O)NC(=O)[C@H](CCCCN)NC(=O)[C@H](CC(=O)O)NC(=O)[C@H](CC(N)=O)NC(=O)[C@H](CC(=O)O)NC(=O)[C@@H]2CCCN2C1=O` [compound 405] (H-DCLGFMRKCIPDNDKCCRPNLVCSRTHKWCKYV[Cha]-NH2; disulfide 2-17, 9-23, 16-30): the IC50 at hNav1.5 (use-dependent, […]) stood at 5530 nM; at hNav1.7 (use-dependent, […]), 20 nM; on hNav1.3 (use-dependent, […]) it was 10 nM.

Turning to `CC[C@H](C)[C@@H]1NC(=O)[C@@H]2CSSC[C@@H]3NC(=O)[C@H](C(C)C)NC(=O)[C@H](CC(C)C)NC(=O)[C@H](CC(N)=O)NC(=O)[C@@H]4CCCN4C(=O)[C@H](CCCNC(=N)N)NC(=O)[C@H](CSSC[C@H](NC(=O)[C@@H]4CCC(=O)N4)C(=O)N[C@@H](CC(C)C)C(=O)NCC(=O)N[C@@H](Cc4ccccc4)C(=O)N[C@@H](CCSC)C(=O)N[C@@H](CCCNC(=N)N)C(=O)N[C@@H](CCCCN)C(=O)N2)NC(=O)[C@H](CSSC[C@@H](C(=O)N[C@@H](CCCCN)C(=O)N[C@@H](Cc2ccc(O)cc2)C(=O)N[C@H](C(=O)N[C@@H](Cc2ccccc2)C(N)=O)C(C)C)NC(=O)[C@H](Cc2c[nH]c4ccccc24)NC(=O)[C@H](CCCCN)NC(=O)[C@H](Cc2c[nH]cn2)NC(=O)[C@H]([C@@H](C)O)NC(=O)[C@H](CCCNC(=N)N)NC(=O)[C@H](CO)NC3=O)NC(=O)[C@H](CCCCN)NC(=O)[C@H](CC(=O)O)NC(=O)[C@H](CC(N)=O)NC(=O)[C@H](CC(=O)O)NC(=O)[C@@H]2CCCN2C1=O` [SEQ ID NO: 188] ([pGlu]CLGFMRKCIPDNDKCCRPNLVCSRTHKWCKYVF-NH2; disulfide 2-17, 9-23, 16-30), the IC50 on hNav1.5 (setting [1]) was determined as 10700 nM; at hNav1.7 (setting [1]) it was 170 nM; on hNav1.3 (setting [1]), 110 nM.

For the molecule `CC[C@H](C)[C@@H]1NC(=O)[C@@H]2CSSC[C@@H]3NC(=O)[C@H](C(C)C)NC(=O)[C@H](CC(C)C)NC(=O)[C@H](CC(N)=O)NC(=O)[C@@H]4CCCN4C(=O)[C@H](CCCNC(=N)N)NC(=O)[C@H](CSSC[C@H](NC(=O)[C@@H](N)CC(=O)O)C(=O)N[C@@H](CC(C)C)C(=O)NCC(=O)N[C@@H](Cc4ccccc4)C(=O)N[C@@H](Cc4c[nH]c5ccccc45)C(=O)N[C@@H](CCCNC(=N)N)C(=O)N[C@@H](CCCCN)C(=O)N2)NC(=O)[C@H](CSSC[C@@H](C(=O)N[C@@H](CCCCN)C(=O)N[C@@H](Cc2c[nH]c4ccccc24)C(=O)N[C@H](C(=O)N[C@@H](Cc2ccccc2)C(N)=O)C(C)C)NC(=O)[C@H](Cc2c[nH]c4ccccc24)NC(=O)[C@H](CCCCN)NC(=O)[C@H](Cc2c[nH]cn2)NC(=O)[C@H]([C@@H](C)O)NC(=O)[C@H](CCCNC(=N)N)NC(=O)[C@H](CO)NC3=O)NC(=O)[C@H](CCCCN)NC(=O)[C@H](CC(=O)O)NC(=O)[C@H](CC(N)=O)NC(=O)[C@H](CC(=O)O)NC(=O)[C@@H]2CCCN2C1=O` [compound 449] (H-DCLGFWRKCIPDNDKCCRPNLVCSRTHKWCKWVF-NH2; disulfide 2-17, 9-23, 16-30), the IC50 was 2930 nM at hNav1.5 (use-dependent block, hNav1.5); 30 nM at hNav1.7 (use-dependent block, hNav1.7); 10 nM at hNav1.3 (use-dependent block, hNav1.3).
